The values below come from patent publication EP4603105A1, “PHARMACEUTICAL COMPOSITION CONTAINING CYCLIC COMPOUND HAVING SELECTIVE KRAS INHIBITORY EFFECT AGAINST HRAS AND NRAS” (CHUGAI SEIYAKU KABUSHIKI KAISHA, priority 2022, dated 2024).

One experiment concerns the target HRAS wild-type protein (Homo sapiens, UniProt P01112). Briefly: Binding to HRAS by surface plasmon resonance (SPR), KD and KD ratio to KRAS. Conditions: ratio of KD for HRAS wild-type protein to KD for KRAS. The essentials: (§1)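 Biotinylated GDP-bound RAS was captured at about 100–300 RU. Running buffer: HBS pH 7.4, 10 mM MgCl2, 10 µM GDP, 1 mM DTT, 0.01% Tween 20, 4% DMSO.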

Experiment [1] has as its system human lung cancer strain NCI-H441. It counts as cell-based. The essentials: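 Step one: dispense the test compound in serial DMSO dilutions. Step three: add the reagent and measure […].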
Experiment [2] concerns the target GDP-bound NRAS wild-type protein (Homo sapiens, UniProt P01111). The experiment can be described thus: Binding to NRAS by surface plasmon resonance (SPR), KD and KD ratio to KRAS. Conditions: ratio of KD for GDP-bound NRAS wild-type protein to KD for KRAS. The essentials:
as §1

The mark [3] stands for this setting: NCI-H441 cells, 4 days, CellTiter-Glo, read-out: NCl-H441 IC50.

SMILES strings stand for the structures. Read-outs that look alike come from different tables or passages of the source.

HRAS wild-type protein, sequence (P01112 whole entry): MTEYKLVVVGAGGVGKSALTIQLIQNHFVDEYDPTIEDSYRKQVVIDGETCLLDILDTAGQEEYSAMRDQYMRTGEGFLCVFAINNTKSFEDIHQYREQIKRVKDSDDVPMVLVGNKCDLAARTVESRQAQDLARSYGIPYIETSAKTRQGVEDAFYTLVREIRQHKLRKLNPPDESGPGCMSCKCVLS
GDP-bound NRAS wild-type protein, sequence (P01111 whole entry): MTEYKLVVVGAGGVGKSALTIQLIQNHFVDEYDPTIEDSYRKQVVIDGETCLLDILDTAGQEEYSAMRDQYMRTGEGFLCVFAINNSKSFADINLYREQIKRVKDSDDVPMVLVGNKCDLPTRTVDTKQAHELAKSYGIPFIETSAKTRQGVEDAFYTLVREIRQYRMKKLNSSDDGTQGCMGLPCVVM

On to `CCC[C@H]1C(=O)N[C@@H]([C@@H](C)CC)C(=O)N(C)CC(=O)N(C)[C@H]2C/C=C\CCN(C2=O)[C@@H](Cc2ccc(C(F)(F)F)cc2)C(=O)N(C)CC(=O)N[C@@H](CCc2ccc(C(F)(F)F)c(C3CC3)c2)C(=O)N2C[C@H](OCC)C[C@H]2C(=O)NC2(CC(C)(C)C2)C(=O)N(C)[C@@H](C2CCCC2)C(=O)N(C)[C@H](C(=O)N(C)C)CC(=O)N1C` [PP2852], for which, on HRAS wild-type protein, the “HRAS /KRAS” value was “B (a compound having 3 or more and less than 10 is denoted as B)”. For the same molecule, the IC50 in experiment [1] stood at 8.7 nM. Moreover, the “NRAS /KRAS” value in experiment [2] is “B (a compound having 3 or more and less than 10 is denoted as B)”.

With `CCC[C@H]1C(=O)N[C@@H]([C@@H](C)CC)C(=O)N(C)CC(=O)N(C)[C@H]2C/C=C\CCN(C2=O)[C@@H](Cc2ccc(C(F)(F)F)cc2)C(=O)N(C)CC(=O)N[C@@H](CCc2ccc(C3CC3)c(OC)c2)C(=O)N2C[C@H](OCC)C[C@H]2C(=O)NC2(CC(C)(C)C2)C(=O)N(C)[C@@H](C2CCCC2)C(=O)N(C)[C@H](C(=O)N(C)C)CC(=O)N1C` [PP2853], the “HRAS /KRAS” value at HRAS wild-type protein was “A (a compound having 10 or more and less than 20 is denoted as A)”. The IC50 in experiment [1] (setting [3]) was determined as 40.2 nM. For the same molecule, the “NRAS /KRAS” value in experiment [2] is “A (a compound having 10 or more and less than 20 is denoted as A)”.

As to `CCC[C@H]1C(=O)N[C@@H]([C@@H](C)CC)C(=O)N(C)CC(=O)N(C)[C@H]2C/C=C\CCN(C2=O)[C@@H](Cc2ccc(C(F)(F)F)cc2)C(=O)N(C)CC(=O)N[C@@H](CCc2ccc(C3CC3)c(C)c2)C(=O)N2C[C@H](OCC)C[C@H]2C(=O)NC2(CC(C)(C)C2)C(=O)N(C)[C@@H](C2CCCC2)C(=O)N(C)[C@H](C(=O)N(C)C)CC(=O)N1C` [PP2855], the “HRAS /KRAS” value on HRAS wild-type protein is “A (a compound having 10 or more and less than 20 is denoted as A)”. For the same molecule, the IC50 in experiment [1] (setting [3]) worked out at 37.9 nM. Also, the “NRAS /KRAS” value in experiment [2] is “A (a compound having 10 or more and less than 20 is denoted as A)”.

As to `CCC[C@H]1C(=O)N[C@@H]([C@@H](C)CC)C(=O)N(C)CC(=O)N(C)[C@H]2C/C=C\CCN(C2=O)[C@@H](Cc2ccc(C(F)(F)F)cc2)C(=O)N(C)CC(=O)N[C@@H](CCc2ccc(CC)c(F)c2)C(=O)N2C[C@H](OCC)C[C@H]2C(=O)NC2(CC(C)(C)C2)C(=O)N(C)[C@@H](C2CCCC2)C(=O)N(C)[C@H](C(=O)N(C)C)CC(=O)N1C` [PP2856], on HRAS wild-type protein, the “HRAS /KRAS” value was “A (a compound having 10 or more and less than 20 is denoted as A)”. In addition, the IC50 in experiment [1] (setting [3]) was 33.5 nM. For the same molecule, the “NRAS /KRAS” value in experiment [2] is “A (a compound having 10 or more and less than 20 is denoted as A)”.

As to `CCC[C@H]1C(=O)N[C@@H]([C@@H](C)CC)C(=O)N(C)CC(=O)N(C)[C@H]2C/C=C\CCN(C2=O)[C@@H](Cc2ccc(C(F)(F)F)cc2)C(=O)N(C)CC(=O)N[C@@H](CCc2cc(C)c(C(F)F)c(C)c2)C(=O)N2C[C@H](OCC)C[C@H]2C(=O)NC2(CC(C)(C)C2)C(=O)N(C)[C@@H](C2CCCC2)C(=O)N(C)[C@H](C(=O)N(C)C)CC(=O)N1C` [PP2857], at HRAS wild-type protein, the “HRAS /KRAS” value is “A (a compound having 10 or more and less than 20 is denoted as A)”. In experiment [1] (setting [3]), the IC50 is 61.6 nM. In addition, the “NRAS /KRAS” value in experiment [2] was “A (a compound having 10 or more and less than 20 is denoted as A)”.

Take `CCC[C@H]1C(=O)N[C@@H]([C@@H](C)CC)C(=O)N(C)CC(=O)N(C)[C@H]2C/C=C\CCN(C2=O)[C@@H](Cc2ccc(C(F)(F)F)cc2)C(=O)N(C)CC(=O)N[C@@H](CCc2ccc(C3CC3)c(Cl)c2)C(=O)N2C[C@H](OCC)C[C@H]2C(=O)NC2(CC(C)(C)C2)C(=O)N(C)[C@@H](C2CCCC2)C(=O)N(C)[C@H](C(=O)N(C)C)CC(=O)N1C` [PP2858]: the “HRAS /KRAS” value on HRAS wild-type protein was “B (a compound having 3 or more and less than 10 is denoted as B)”. Besides, the IC50 in experiment [1] (setting [3]) is 11.8 nM. For the same molecule, the “NRAS /KRAS” value in experiment [2] was “A (a compound having 10 or more and less than 20 is denoted as A)”.

As to `CCC[C@H]1C(=O)N[C@@H]([C@@H](C)CC)C(=O)N(C)CC(=O)N(C)[C@H]2C/C=C\CCN(C2=O)[C@@H](Cc2ccc(C(F)(F)F)cc2)C(=O)N(C)CC(=O)N[C@@H](CCc2cc(Cl)c(C(F)(F)F)c(Cl)c2)C(=O)N2C[C@H](OCC)C[C@H]2C(=O)NC2(CC(C)(C)C2)C(=O)N(C)[C@@H](C2CCCC2)C(=O)N(C)[C@H](C(=O)N(C)C)CC(=O)N1C` [PP2859], the “HRAS /KRAS” value on HRAS wild-type protein was “A (a compound having 10 or more and less than 20 is denoted as A)”. In experiment [1], this molecule had a half-inhibitory concentration (IC50) of 6.8 nM. Also, the “NRAS /KRAS” value in experiment [2] is “A (a compound having 10 or more and less than 20 is denoted as A)”.

Consider `CCC[C@H]1C(=O)N[C@@H]([C@@H](C)CC)C(=O)N(C)CC(=O)N(C)[C@H]2C/C=C\CCN(C2=O)[C@@H](Cc2ccc(C(F)(F)F)cc2)C(=O)N(C)CC(=O)N[C@@H](CCc2ccc(C(F)(F)F)c(CC)c2)C(=O)N2C[C@H](OCC)C[C@H]2C(=O)NC2(CC(C)(C)C2)C(=O)N(C)[C@@H](C2CCCC2)C(=O)N(C)[C@H](C(=O)N(C)C)CC(=O)N1C` [PP2861], for which the “HRAS /KRAS” value at HRAS wild-type protein is “B (a compound having 3 or more and less than 10 is denoted as B)”. The same molecule yielded an IC50 in experiment [1] of 6.3 nM. Besides, the “NRAS /KRAS” value in experiment [2] is “A (a compound having 10 or more and less than 20 is denoted as A)”.

For `CCC[C@H]1C(=O)N[C@@H]([C@@H](C)CC)C(=O)N(C)CC(=O)N(C)[C@H]2C/C=C\CCN(C2=O)[C@@H](Cc2ccc(C(F)(F)F)cc2)C(=O)N(C)CC(=O)N[C@@H](CCc2cc(F)c(CC)c(OC)c2)C(=O)N2C[C@H](OCC)C[C@H]2C(=O)NC2(CC(C)(C)C2)C(=O)N(C)[C@@H](C2CCCC2)C(=O)N(C)[C@H](C(=O)N(C)C)CC(=O)N1C` [PP2862], the “HRAS /KRAS” value at HRAS wild-type protein is “B (a compound having 3 or more and less than 10 is denoted as B)”. In addition, the IC50 in experiment [1] (setting [3]) stood at 36.3 nM. The “NRAS /KRAS” value in experiment [2] is “A (a compound having 10 or more and less than 20 is denoted as A)”.

On to `CCC[C@H]1C(=O)N[C@@H]([C@@H](C)CC)C(=O)N(C)CC(=O)N(C)[C@H]2C/C=C\CCN(C2=O)[C@@H](Cc2ccc(C(F)(F)F)cc2)C(=O)N(C)CC(=O)N[C@@H](CCc2cc(C)c(C3CC3)c(C)c2)C(=O)N2C[C@H](OCC)C[C@H]2C(=O)NC2(CC(C)(C)C2)C(=O)N(C)[C@@H](C2CCCC2)C(=O)N(C)[C@H](C(=O)N(C)C)CC(=O)N1C` [PP2863], for which the “HRAS /KRAS” value on HRAS wild-type protein was “A (a compound having 10 or more and less than 20 is denoted as A)”. Further, in experiment [1] (setting [3]), the IC50 is 128 nM. The “NRAS /KRAS” value in experiment [2] was “A (a compound having 10 or more and less than 20 is denoted as A)”.

Regarding `CCC[C@H]1C(=O)N[C@@H]([C@@H](C)CC)C(=O)N(C)CC(=O)N(C)[C@H]2C/C=C\CCN(C2=O)[C@@H](Cc2ccc(C(F)(F)F)cc2)C(=O)N(C)CC(=O)N[C@@H](CCc2cc(F)c(Cl)c(OC)c2)C(=O)N2C[C@H](OCC)C[C@H]2C(=O)NC2(CC(C)(C)C2)C(=O)N(C)[C@@H](C2CCCC2)C(=O)N(C)[C@H](C(=O)N(C)C)CC(=O)N1C` [PP2864], the “HRAS /KRAS” value on HRAS wild-type protein was “A (a compound having 10 or more and less than 20 is denoted as A)”. The IC50 in experiment [1] (setting [3]) came out at 124 nM. The “NRAS /KRAS” value in experiment [2] was “A (a compound having 10 or more and less than 20 is denoted as A)”.

For `CCC[C@H]1C(=O)N[C@@H]([C@@H](C)CC)C(=O)N(C)CC(=O)N(C)[C@H]2C/C=C\CCN(C2=O)[C@@H](Cc2ccc(C(F)(F)F)cc2)C(=O)N(C)CC(=O)N[C@@H](CCc2cc(Cl)c(C(F)F)c(Cl)c2)C(=O)N2C[C@H](OCC)C[C@H]2C(=O)NC2(CC(C)(C)C2)C(=O)N(C)[C@@H](C2CCCC2)C(=O)N(C)[C@H](C(=O)N(C)C)CC(=O)N1C` [PP2865], on HRAS wild-type protein, the “HRAS /KRAS” value was “A (a compound having 10 or more and less than 20 is denoted as A)”. In addition, the IC50 in experiment [1] (setting [3]) was 37.7 nM. The “NRAS /KRAS” value in experiment [2] was “A (a compound having 10 or more and less than 20 is denoted as A)”.

In the case of `CCC[C@H]1C(=O)N[C@@H]([C@@H](C)CC)C(=O)N(C)CC(=O)N(C)[C@H]2C/C=C\CCN(C2=O)[C@@H](Cc2ccc(C(F)(F)F)cc2)C(=O)N(C)CC(=O)N[C@@H](CCc2cc(C)c(C(F)F)c(Cl)c2)C(=O)N2C[C@H](OCC)C[C@H]2C(=O)NC2(CC(C)(C)C2)C(=O)N(C)[C@@H](C2CCCC2)C(=O)N(C)[C@H](C(=O)N(C)C)CC(=O)N1C` [PP2866], the “HRAS /KRAS” value at HRAS wild-type protein was “A (a compound having 10 or more and less than 20 is denoted as A)”. The IC50 in experiment [1] (setting [3]) stood at 39.6 nM. Moreover, in experiment [2], the “NRAS /KRAS” value is “A (a compound having 10 or more and less than 20 is denoted as A)”.

On to `CCC[C@H]1C(=O)N[C@@H]([C@@H](C)CC)C(=O)N(C)CC(=O)N(C)[C@H]2C/C=C\CCN(C2=O)[C@@H](Cc2ccc(C(F)(F)F)cc2)C(=O)N(C)CC(=O)N[C@@H](CCc2cc(F)c(C(F)F)c(OC)c2)C(=O)N2C[C@H](OCC)C[C@H]2C(=O)NC2(CC(C)(C)C2)C(=O)N(C)[C@@H](C2CCCC2)C(=O)N(C)[C@H](C(=O)N(C)C)CC(=O)N1C` [PP2867], for which the “HRAS /KRAS” value at HRAS wild-type protein is “A (a compound having 10 or more and less than 20 is denoted as A)”. Also, the IC50 in experiment [1] (setting [3]) is 17.1 nM. For the same molecule, in experiment [2], the “NRAS /KRAS” value was “A (a compound having 10 or more and less than 20 is denoted as A)”.

For the molecule `CCC[C@H]1C(=O)N[C@@H]([C@@H](C)CC)C(=O)N(C)CC(=O)N(C)[C@H]2C/C=C\CCN(C2=O)[C@@H](Cc2ccc(C(F)(F)F)cc2)C(=O)N(C)CC(=O)N[C@@H](CCc2ccc(CC)c(OC)c2)C(=O)N2C[C@H](OCC)C[C@H]2C(=O)NC2(CC(C)(C)C2)C(=O)N(C)[C@@H](C2CCCC2)C(=O)N(C)[C@H](C(=O)N(C)C)CC(=O)N1C` [PP2869], the “HRAS /KRAS” value on HRAS wild-type protein was “A (a compound having 10 or more and less than 20 is denoted as A)”. In addition, in experiment [1] (setting [3]), the IC50 amounted to 37.6 nM. For the same molecule, in experiment [2], the “NRAS /KRAS” value is “A (a compound having 10 or more and less than 20 is denoted as A)”.

As a reminder, the IC50 is the concentration that inhibits the measured activity by half.
